Entries after “also recorded” stand apart in the source; their conditions may differ. Square brackets hold non-standard residues; d marks the D form. Ends that are not written are not given here. Hyp = O=C(O)[C@@H]1C[C@@H](O)CN1
Experiments:
[1] = system: immature mouse uterus; experiment: Immature mouse uterine growth assay; assay type: in vivo; settings: for biological activity of gel filtration fraction of aged peptide: 1 μg i.p.; for uterotrophic effect of agent alone: peptide even at a dose of 10 μg/mouse, FIG. 13a; for inhibition of the uterotrophic effect of estradiol: Pep 1 μg i.p. one hour before E2 0.5 μg i.p.; for inhibition of the uterotrophic effect of estradiol / inhibition of the uterotrophic effect of tamoxifen: FIG. 13b; for inhibition of the uterotrophic effect of tamoxifen: Pep 1 μg i.p. one hour before Tam 1.0 μg i.p.
Description: Immature Mouse Uterine Growth Assay.
Differences between groups were evaluated, employing the non-parametric Wilcoxon Sum of Ranks test (one-sided).

[2] = system: MCF-7 human breast cancer xenografts; experiment: Human breast cancer xenograft assay, MCF-7; assay type: in vivo; settings: for tumor volumes versus E2 alone group (Wilcoxon ranks-sum test): MCF-7, day 30 (FIG. 7: 20 days and 30 days) after tumor implantation, p<0.05; for growth (tumor volume) of MCF-7 xenografts in E2-supplemented SCID mice: peptide 1 μg i.p. twice a day, tamoxifen 50 μg i.p. once a day, 30-day observation
Description: Human Breast Cancer Xenograft Assay. A bioassay for anti-breast cancer activity was performed according to Bennett et al. (23;24). Confluent MCF-7 human breast cancer cells were trypsinized into suspension and pelleted by centrifugation at 200×g. The pellet was then solidified into a fibrin clot by exposing it to 10 μl of fibrinogen (50 mg/ml) and 10 μl of thrombin (50 units/ml). The solid mass of MCF-7 cells was then cut into pieces 1.5 mm in diameter. A tumor segment of ˜1.5 mm in diameter was implanted under the kidney capsule of an immunodeficient ICR-SCID male mouse (Taconic Farms) that weighed about 25 g. Estrogen supplementation was accomplished by s.c. implantation of a silastic tubing capsule containing solid E2 inserted on the day of tumor implantation. Peptide was injected i.p. every twelve hours at a dose of 1 μg per mouse. Tumor growth was monitored during survival laparotomy at 10 day intervals by measurement of the diameters of the short (d) and long axes (D) of each tumor, using a dissecting microscope equipped with an ocular micrometer. Tumor volumes were calculated using the formula (π/6) (d)^2D, assuming the tumor shape to be an ellipsoid of revolution around its long axis (D). There were five to seven replicate mice included in each treatment group. Mean tumor volume±standard error in each group was calculated for display of growth curves. Significance of differences between groups were tested using the one-sided Wilcoxon Sum of Ranks Test.

[3] = system: MCF-7/Tam human breast cancer xenografts; experiment: Human breast cancer xenograft assay, tamoxifen-resistant MCF-7 subline; assay type: in vivo; settings: for growth (tumor volume) of tamoxifen-resistant MCF-7 subline xenografts in E2-supplemented SCID mice: peptide 1 μg i.p. twice a day, tamoxifen 50 μg i.p. once a day, 30-day observation
Description: (§1) Cell Lines. T47D and MDA-231 human breast cancer cell lines were purchased from the American Type Culture Collection (Manassas, Va.). Growth medium for T47D cells consisted of RPMI 1640 (Life Technologies, Germantown, Md.) supplemented with 10% fetal bovine serum (Life Technologies) and 8 μg/ml bovine insulin (Sigma, St. Louis, Mo.). […] The MCF-7 cell line was obtained from Dr. Alberto C. Baldi, Institute of Experimental Biology and Medicine, Buenos Aires, Argentina, and was maintained as previously described by Gierthy et al. (1991). […] Human Breast Cancer Xenograft Assay. A bioassay for anti-breast cancer activity was performed according to Bennett et al. (23;24). […] The pellet was then solidified into a fibrin clot by exposing it to 10 μl of fibrinogen (50 mg/ml) and 10 μl of thrombin (50 units/ml). The solid mass of MCF-7 cells was then cut into pieces 1.5 mm in diameter. A tumor segment of ˜1.5 mm in diameter was implanted under the kidney capsule of an immunodeficient ICR-SCID male mouse (Taconic Farms) that weighed about 25 g. […] Peptide was injected i.p. every twelve hours at a dose of 1 μg per mouse. Tumor growth was monitored during survival laparotomy at 10 day intervals by measurement of the diameters of the short (d) and long axes (D) of each tumor, using a dissecting microscope equipped with an ocular micrometer. […] There were five to seven replicate mice included in each treatment group. Mean tumor volume±standard error in each group was calculated for display of growth curves. Significance of differences between groups were tested using the one-sided Wilcoxon Sum of Ranks Test.

[4] = system: T47D human breast cancer xenografts; experiment: Human breast cancer xenograft assay, T47D; assay type: in vivo; settings: for growth (tumor volume) of T47D xenografts in E2-supplemented SCID mice: peptide 1 μg i.p. twice a day, 30-day observation
Description: as §1

[5] = system: MDA-MB-231 human breast cancer xenografts; experiment: Human breast cancer xenograft assay, MDA-MB-231; assay type: in vivo; settings: for growth (tumor volume) of ER− MDA-MB-231 xenografts: peptide 1 μg i.p. twice a day, tamoxifen 50 μg i.p. once a day, 30-day observation
Description: as §1

[6] = in vivo; cited from earlier work
[7] = system: MCF-7 breast cancer cells; settings: ERα-positive breast cancer (MCF-7) cells; Background of Example IV; cited from earlier work
[8] = system: human breast cancer lines; settings: DeFreest et al., J Pept Res 63:409-419, 2004; cited from earlier work
[9] = molecular target: T1, estrogen receptor (rabbit uterine cytosol) (Oryctolagus cuniculus, UniProt G1SML6); experiment: Assessment of estrogen receptor antagonism ([3H]estradiol binding)
T1 sequence (G1SML6 1-598): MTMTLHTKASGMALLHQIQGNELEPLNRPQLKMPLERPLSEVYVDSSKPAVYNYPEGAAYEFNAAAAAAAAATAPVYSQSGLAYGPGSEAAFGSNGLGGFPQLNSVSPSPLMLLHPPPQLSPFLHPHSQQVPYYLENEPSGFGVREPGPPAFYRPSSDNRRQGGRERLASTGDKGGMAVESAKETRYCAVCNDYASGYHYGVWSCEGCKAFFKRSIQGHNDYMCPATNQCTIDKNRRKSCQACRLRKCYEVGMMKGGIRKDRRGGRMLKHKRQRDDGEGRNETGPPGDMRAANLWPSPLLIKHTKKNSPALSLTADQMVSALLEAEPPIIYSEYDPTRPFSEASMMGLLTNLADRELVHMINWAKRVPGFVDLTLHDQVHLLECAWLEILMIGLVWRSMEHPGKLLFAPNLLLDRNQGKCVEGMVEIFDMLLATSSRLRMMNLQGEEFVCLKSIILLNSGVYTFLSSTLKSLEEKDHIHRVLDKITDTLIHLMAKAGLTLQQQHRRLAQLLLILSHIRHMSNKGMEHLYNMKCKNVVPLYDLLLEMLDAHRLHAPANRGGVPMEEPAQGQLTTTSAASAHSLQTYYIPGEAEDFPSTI
Description: Assessment of Estrogen Receptor Antagonism. Commercially obtained rabbit uteri (Pel-Freez Biological, Rogers, A R) were used as a source of estrogen receptor. Uteri were pulverized in a stainless steel impact mortar under liquid nitrogen and homogenized (20% w/v) in assay buffer (10 mM Tris (pH 7.4), 1.5 mM EDTA, 10% glycerol, 10 mM monothioglycerol, and 10 mM sodium molybdate] on ice. Centrifugation (50,000×g) for 1 h yielded a supernatant containing cytosol, which was adjusted with assay buffer to 2.5 mg protein/ml. All incubations were carried out in triplicate, each containing 100 μl of cytosol, 20 μl of […] 6,7-[3H]estradiol (50 Ci/mmol; DuPont Pharmaceuticals Company, Wilmington, Del., U.S.A.), and 80 μl of putative antagonist in assay buffer. Total count tubes received 20 μl of [3H]estradiol and 180 μl of assay buffer. After incubation overnight at 4° C., all but the total count tubes received 300 μl of dextran-coated charcoal suspension; tubes were agitated for 15 min and then centrifuged (1,000×g) for 15 min. Supernatants were decanted into counting vials, scintillant was added, and protein-bound tritium was determined by liquid scintillation counting.

Compound: QMTPVNPG (listed as Homo sapiens) [SEQ ID NO: 2]
- biological activity of stored inactive peptide after brief treatment with 4M urea [1]: restored its biological activity
- % Inhibition of E2-Stimulated Growth of Immature Mouse Uterus ± SE ([1]; Stored over 1 year (lyophilized, −20° C.), 1 μg per mouse i.p.): 0 ± 2%
- biological activity of gel filtration fraction of aged peptide ([1]; higher molecular weight fraction (FIG. 2b, left side of peak)): biologically inactive
- optimal dose for inhibition of estrogen-stimulated growth of mouse uterus ([1]; i.p., FIG. 1a): 1 μg/mouse
- biological activity of gel filtration fraction of aged peptide ([1]; lower molecular weight fraction (FIG. 2b, right side of peak)): active
- anti-estrotrophic activity as a function of storage time (shelf-life) ([1]; stored at −20° C. in the lyophilized state, 1 μg per mouse, FIG. 1b): diminished to insignificant levels after five weeks of storage
- biological activity of aged peptide ([1]; stored in the lyophilized state at −20° C. for over one year): completely biologically inactive

Compound: CC/C(=C(\c1ccccc1)c1ccc(OCCN(C)C)cc1)c1ccccc1 [tamoxifen]
- uterotrophic effect of agent alone ([1]; i.p.): stimulate the growth of the immature mouse uterus
- tumor volumes versus E2 alone group (Wilcoxon ranks-sum test) [2]: significantly different
- growth (tumor volume) of MCF-7 xenografts in E2-supplemented SCID mice [2]: prevented growth; also recorded: no increase in tumor volume
- growth (tumor volume) of tamoxifen-resistant MCF-7 subline xenografts in E2-supplemented SCID mice [3]: resistant to tamoxifen in vivo; also recorded: only minimally effective
- growth (tumor volume) of T47D xenografts in E2-supplemented SCID mice [4]: prevented growth
- growth (tumor volume) of ER− MDA-MB-231 xenografts [5]: Neither peptide nor tamoxifen were effective; also recorded: did not affect the growth
- users with uterine cancer as side effect [6]: 0.2%

Compound: EMTPVNPG (listed as Homo sapiens) [SEQ ID NO: 6]
- biological activity of stored inactive peptide after brief treatment with 4M urea [1]: regenerated by 4M urea

Compound: Cyclo[EMTOVNOGQ]
- expression of estrogen receptor-α (ERα) [7]: downregulation of expression of estrogen receptor-α (ERα)
- proliferation of human breast cancer lines in immunocompromised mice [8]: inhibit proliferation of human breast cancer lines

Compound: EMTOVNOG (EMT[Hyp]VN[Hyp]G; listed as Homo sapiens) [SEQ ID NO: 4]
- inhibition of the uterotrophic effect of estradiol ([1]; listed as Pep): significantly different
- inhibition of the uterotrophic effect of estradiol ([1]; listed as peptide): inhibited the uterotrophic effect of tamoxifen as well as that of estradiol
- inhibition of the uterotrophic effect of tamoxifen [1]: significantly inhibited tamoxifen's uterotrophic effect
- inhibition of the uterotrophic effect of tamoxifen ([1]; listed as Pep): significantly different
- inhibition of the uterotrophic effect of tamoxifen ([1]; listed as peptide): inhibited the uterotrophic effect of tamoxifen
- uterotrophic effect of agent alone ([1]; i.p.): no uterotrophic effect whatsoever
- tumor volumes versus E2 alone group (Wilcoxon ranks-sum test) [2]: significantly different
- growth (tumor volume) of MCF-7 xenografts in E2-supplemented SCID mice [2]: prevented growth; also recorded: no significant increase in tumor volume
- tumor volumes versus E2 alone group (Wilcoxon Ranks Sum Test) ([3]; MCF-7 subline made resistant to tamoxifen, day 30, p<0.05): significantly different
- growth (tumor volume) of tamoxifen-resistant MCF-7 subline xenografts in E2-supplemented SCID mice [3]: completely prevented the xenograft growth; also recorded: completely stopped the growth
- tumor volumes versus E2 alone group (Wilcoxon Ranks Sum Test) ([4]; T47D, day 30, p<0.05): significantly different
- growth (tumor volume) of T47D xenografts in E2-supplemented SCID mice [4]: completely prevented tumor growth
- differences in tumor volumes between groups ([5]; MDA-MB-231, FIG. 11): no differences in tumor volumes
- growth (tumor volume) of ER− MDA-MB-231 xenografts [5]: Neither peptide nor tamoxifen were effective; also recorded: had no effect on the growth
- competition/interference with estrogen binding to the estrogen receptor ([9]; cell-free system): does not interfere with the binding of [^3H]estradiol to the estrogen receptor
- interference with E2 binding to ER ([9]; peptide concentration range of 10^−10M to 10^−5M): no interference with E2 binding to ER

Reference: patent US7943577B2, “Alpha-fetoprotein peptides and uses thereof” (Albany Medical College, priority 2001, dated 2011)
